In this test the test system is SNB-75 CNS. As to the kind of experiment: inhibition of tumour cell growth, NCI panel, 48 h.

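Protocol summary: plate cells (96-well), add compound at 5 concentrations, incubate 48 h, interpolate endpoints linearly. GI50 marks 50% less growth. TGI is the concentration that stops growth completely.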

On to `OC(c1ccc(Cl)cc1)(c1ccc(Cl)cc1)C(O)(c1ccc(Cl)cc1)c1ccc(Cl)cc1`, for which the GI50 was 4.36 µM and the TGI was > 100 µM.

The values above are taken from PubChem BioAssay (NCI).
